In US12258547B2, “Cell culture plate, method for preparing thereof and method for detecting a substance” (UPM-Kymmene Corporation, priority 2019, dated 2025):
Counter-ions that a name gives are not always drawn.

Experiments:
BJ fibroblasts = experiment: Leakage Test 2: 3D-printed 1.5% GrowDex barriers, BJ cells outside, chemical dosed inside, WST-1; assay type: cell-based, Human; settings: 24 hrs, 450 nm
Protocol: (§1) For this purpose, we • decreased the cell number from the 40 000 cells/well that was used in Test 1, to 20 000 cells/well • increased the Amitriptyline concentrations from 10 and 20 μg/ml used in Test 1 to 100 and 200 μg/ml, and the SDS concentrations from 40 and 80 μg/ml used in Test 1 to 100 and 200 μg/ml. [By decreasing cell number and increasing chemical concentration it was aimed to increase the sensitivity of the test, and expect to obtain more (measurable/visible) impacts on cells]. • included following blanks: • 1.5% GrowDex barrier on poly-D-lysine coated wells in BJ cell culture medium and WST-1, but no cells • 1.5% GrowDex barrier in MEM, no coating, no cells • 1.5% GrowDex barrier in PBS, no coating, no cells • In addition, the number of measurements/well in the multipoint absorbance reading was increased from 81 to 225 reads/well in order to get denser coverage of the well.
(§2) 1.5% GrowDex barriers consisting of four layers, were printed on a 12-well plate. For more details on 3D-printing, see Appendix 1. After construction, the barriers were left to dry for 1 hr at room temperature, after which they were covered with MEM. The plate was sealed with parafilm and stored at 4° C. until used.
(§3) The next day after construction of the barriers, BJ fibroblasts were seeded: 400 μl BJ suspension (50 000 cells/ml) was seeded outside of the barriers (→altogether 20 000 BJ cells), and 100 μl BJ cell culture medium was pipetted inside of the barriers. The cells were let to grow for 24 hrs before exposure.
(§4) 2.0 mg/ml stocks were prepared from both Amitriptyline and SDS in BJ cell culture medium with 5% FBS. The stocks were first diluted 1:10 to obtain […] chemical dilution. And the 200 μg/ml chemical dilution was further diluted 1:2 to obtain 100 μg/ml chemical dilution. These dilutions, i.e. 200 and 100 μg/ml were used in the exposure.
(§5) The medium was removed carefully from both inside and outside of the barriers. 400 μl BJ cell culture medium with 5% FBS was pipetted outside of the barrier (where the cells had been seeded on previous day). 100 μl chemical dilution (SDS or Amitriptyline) was pipetted inside of the barriers. The exposure time was 24 hrs.
(§6) After 24 hrs chemical exposure, 10 μl WST-1 reagent was pipetted inside of the barriers, and 100 μl outside of the barriers. The plate was incubated for 30 min, 1.5 hrs and 2.0 hrs before absorbance measurement at 450 nm. The absorbance was measured using multipoint measurement with 225 reads/well.
(§7) In an attempt to quantify the cell viability after different treatments, the mean±STDEV absorbances were calculated using two rows of absorbances that were measured next to the outer edges of the wells. This area was assumed to be outside of the barrier.

[1] = as above; assay type: cell-based, Human; settings: human; for viability at 24 h, 100 μg/ml: 100 μg/ml dosed into other side of barrier; for viability at 24 h, 100 μg/ml / viability at 24 h, 200 μg/ml: read-out: Viability % of Control; for viability at 24 h, 200 μg/ml: 200 μg/ml dosed into other side of barrier
Protocol: as §1, §2, §3, §4, §5, §6, §7

BJ cells [2] = experiment: Leakage Test 1: 3D-printed barriers, BJ cells outside, chemical dosed inside, WST-1 and microscopy; assay type: cell-based, Human; settings: SDS 80 and 40 μg/ml, amitriptyline 20 and 10 μg/ml dosed inside barrier, 24 hrs
Protocol: It was investigated whether the 3D-printed GrowDex barriers are suitable for their intended use, i.e. to prevent the movement of cells across the barrier but allow the passage of chemicals. In order to test this, BJ cells were seeded outside of the barrier, and chemicals (SDS and Amitriptyline hydrochloride), which are known to be toxic to BJ cells, were applied inside of the barrier. After 24 hrs incubation it was evaluated microscopically whether cells had stayed outside of the barriers and whether the chemical dosed in the middle of the barrier killed the cells outside of the barrier. For quantification of cell viability, WST-1 assay was used. WST-1 assay was selected as it was used previously successfully with manually constructed barriers.
12-Well Plates: 400 μl BJ suspension (100 000 cells/ml) was seeded outside of the barriers (→altogether 40 000 BJ cells), and 100 μl BJ cell culture medium was pipetted inside of the barriers.
24-Well Plates: 200 μl of BJ suspension (100 000 cells/ml) was seeded outside of the barriers (→altogether 20 000 BJ cells), and 50 μl BJ cell culture medium was pipetted inside of the barriers. […]
The plates were incubated for 2.5 hrs before absorbance measurement at 450 nm. The absorbance was measured using multipoint measurement with 49 reads/well in 24-well plates and 81 reads/well in 12-well plates.

SH-SY5Y cells = experiment: SDS permeability (indirect): cell viability observed microscopically on both sides of barrier; assay type: cell-based, Human; settings: 0.4 mg/ml SDS dosed left
Protocol: Barrier permeability to chemicals was tested by visual inspection using 0.2% Trypan blue, by quantitative measurement using 1 mg/ml fluorescein solution, and by indirect method using sodium dodecyl sulfate (SDS), which is a toxic compound. SDS is a detergent that is known to be toxic to all cell types. […] Circular shaped barriers were prepared in 6-well plates, and straight wall shaped barriers in 24-well plates. SH-SY5Y cells were seeded to the 24-well plate in both sides of the barriers in their normal cell culture medium at the density of 325 000 cells/50 μl. HepG2 cells were seeded to the 6-well plate both inside the barrier circles and outside of them at the density of 107 500 cells/50 μl. Next day 0.4 mg/ml SDS stock was prepared and the cells were exposed to it: SH-SY5Y cells growing on the 24 well plate: 100 μl of 0.4 mg/ml SDS solution was pipetted to the left side of the barrier. 100 μl medium without SDS was pipetted to the right side of the barrier. […] The cell viability was observed microscopically.

BJ cells [3] = experiment: Previous cytotoxicity data on BJ cells obtained without barriers; assay type: cell-based; settings: Homo sapiens, dosed without barriers
Source text: The aim was to detect dose-dependent effect by using a concentration that was expected to kill about half of the cells and a concentration two times bigger than that.

HepG2 cells = experiment: SDS permeability (indirect): cell viability observed microscopically inside and outside barrier circle; assay type: cell-based, Human; settings: 0.4 mg/ml SDS dosed inside circle
Protocol: Barrier permeability to chemicals was tested by visual inspection using 0.2% Trypan blue, by quantitative measurement using 1 mg/ml fluorescein solution, and by indirect method using sodium dodecyl sulfate (SDS), which is a toxic compound. SDS is a detergent that is known to be toxic to all cell types. […] Circular shaped barriers were prepared in 6-well plates, and straight wall shaped barriers in 24-well plates. SH-SY5Y cells were seeded to the 24-well plate in both sides of the barriers in their normal cell culture medium at the density of 325 000 cells/50 μl. HepG2 cells were seeded to the 6-well plate both inside the barrier circles and outside of them at the density of 107 500 cells/50 μl. Next day 0.4 mg/ml SDS stock was prepared and the cells were exposed to it: HepG2 cells growing on the […]: 400 μl of 0.4 mg/ml SDS solution was pipetted inside the circle, and 400 μl of medium without SDS […] outside of the circle. […] The cell viability was observed microscopically.

[4] = 0.2% Trypan blue permeability through GrowDex barrier, visual inspection; assay type: physicochemical; settings: 0.2% dosed to left side
Protocol: Barriers were prepared in 6-well (circular shaped barriers) and in 24-well (straight wall shaped barriers) plates, and allowed to dry overnight. The barriers were high enough to prevent passage and mixing of the solutions over them. All passage and mixing had to occur through the barriers. Barrier permeability to chemicals was tested by visual inspection using 0.2% Trypan blue, by quantitative measurement using 1 mg/ml fluorescein solution, and by indirect method using sodium dodecyl sulfate (SDS), which is a toxic compound. 400 μl Dulbecco's PBS/well was added to the 24-well plates. The plates were incubated for 1 hour at room temperature to moisturize the GrowDex barrier. The DPBS was removed and replaced with 100 μl 0.2% Trypan blue on the left side of the barrier, and with an equal amount of DPBS on the right side of the barrier.

[5] = 100 μg/ml dosed into other side of barrier
[6] = 200 μg/ml dosed into other side of barrier

Row | Compound | Mean absorbance, stdev (BJ fibroblasts; [5]) | Mean absorbance, stdev (BJ fibroblasts; [6]) | viability at 24 h, 100 μg/ml [1] [%] | viability at 24 h, 200 μg/ml [1] [%] | toxicity to BJ cells across 3D-printed barrier (BJ cells [2]) | cell viability, left side of the barrier (dosed side) (SH-SY5Y cells; 24 hours) | cell viability, right side of the barrier (SH-SY5Y cells; 24 hours) | cell viability, both compartments (SH-SY5Y cells; 48 hours) | IC50 (BJ cells [3]) [µg/mL] | cell viability inside the GrowDex circle (dosed side) (HepG2 cells; 24 hours) | cell viability outside of the circle (HepG2 cells; 24 hours) | HepG2 cells died outside of the circle (HepG2 cells; 48 hours) | cytotoxicity at 24 h, 100 μg/ml ([1]; 100 μg/ml exposure, across barrier, read-out: reduction in BJ viability) [%] | cytotoxicity at 24 h, 200 μg/ml ([1]; 200 μg/ml exposure, across barrier, read-out: reduction in BJ viability) [%] | distribution of blue color ([4]; after six hours) | distribution of blue color ([4]; next day)
1 | CCCCCCCCCCCCOS(=O)(=O)[O-].[Na+] [SDS, Sodium Dodecyl Sulfate] | 1.072 ± 0.322 | 1.189 ± 0.406 | 106 | 118 | not toxic | all SH-SY5Y cells in the left side of the barrier were dead | cells were dead next to the barrier, but not all over the well | all cells were dead in both compartments | 47 | all HepG2 cells were dead inside the GrowDex circle | also outside of the circle next to the GrowDex barrier | about 95% |  |  |  | 
2 | CN(C)CCC=C1c2ccccc2CCc2ccccc21 [Amitriptyline hydrochloride, 3-(10,11-dihydro-5H-dibenzo[a,d]cycloheptene-5-ylidene)-N,N-dimethylpropan-1-amine] | 0.911 ± 0.283 | 0.844 ± 0.318 | 90 | 84 | not toxic |  |  |  | 12 |  |  |  | 10 | 16 |  | 
3 | Cc1cc(-c2ccc(/N=N/c3c(S(=O)(=O)O)cc4cc(S(=O)(=O)O)cc(N)c4c3O)c(C)c2)ccc1/N=N/c1c(S(=O)(=O)O)cc2cc(S(=O)(=O)O)cc(N)c2c1O [Trypan Blue] |  |  |  |  |  |  |  |  |  |  |  |  |  |  | absorbed most of the blue color | evenly distributed on the both sides of the barrier
